Laboratory results: EP2402356A2, “Modified 2',3'-dideoxynucleosides for treatment infections caused by human immunodeficiency virus (HIV) multidrug resistant strains, method of their synthesis and the pharmaceutical agent containing these nucleosides” (Instytut Biochemii I Biofizyki Pan, priority 2010, dated 2012)
Where two headings read alike, the source gives them in different places.

Columns and labels:
Wild type pNL4-3 = assay: Antiviral activity (EC50), deCIPhR cell system, beta-galactosidase indicator cell readout; assay type: cell-based, HIV-1
[1] = test system: Recombin ant provirus from the patient 6021959; assay: microbe, parasite or virus in culture; assay type: cell-based, HIV-1
[2] = test system: Recombin ant provirus from the patient 7007984; assay: microbe, parasite or virus in culture; assay type: cell-based, HIV-1
Wild type # = assay: Antiviral activity (EC50) in CEMA and CEM-T4 cells; assay type: cell-based, HIV-1; details: Human immunodeficiency virus 1; wild type # marked a,b = CEMA and CEM-T4 cells
[3] = test system: NNRTI (RTMDR) 5 resistant; assay: microbe, parasite or virus in culture; assay type: cell-based, HIV-1; details: Human immunodeficiency virus 1
NRTI (RTMC) resistant = assay: microbe, parasite or virus in culture; assay type: cell-based, HIV-1; details: Human immunodeficiency virus 1
[4] = Cytotoxicity, Alamar Blue Cell Viability Assay; details: deciphr cells
[5] = HIV-1 wild type pNL4-3, cells per table title (deCIPhR, CEMA, CEM-T4), row has no cell mark, presumably deCIPhR, read-out: EC50
[6] = recombinant provirus from patient 6021959, RT resistance mutations M41 L, E44D, T69D, L741, K103N, V108I, V118I, M184V, M230L, T215Y, G333E, read-out: EC50
[7] = recombinant provirus from patient 7007984, RT resistant mutations M41 L, K70R, A985, T215Y, read-out: EC50
[8] = Human immunodeficiency virus 1, CEM-T4

SMILES | EC50 (Wild type pNL4-3; [5]) [nM] | EC50 [1, 6] [nM] | EC50 [2, 7] [nM] | EC50 (Wild type pNL4-3; [8]) [nM] | EC50 ([1]; Human immunodeficiency virus 1) [nM] | EC50 ([2]; Human immunodeficiency virus 1) [nM] | EC50 (Wild type #) [nM] | EC50 [3] [nM] | EC50 (NRTI (RTMC) resistant) [nM] | cytotoxicity (CD50) (deCIPhR™ cell system) | CC50 [4] [nM]
Cc1cn([C@H]2C[C@H](N=[N+]=[N-])[C@@H](COP(=O)(O)O)O2)c(=O)[nH]c1=O [AZTM P, reference compound] | 63 | 1710 | 1030 | – | – | – | – | – | – | – | –
Cc1cn([C@H]2C[C@H](F)[C@@H](COP(=O)(O)O)O2)c(=O)[nH]c1=O [FLT MP, reference compound] | 10 | 30 | 18 | – | – | – | – | – | – | – | –
COCCCCCCCCCCCC(=O)OC[C@H]1O[C@@H](n2cc(C)c(=S)[nH]c2=O)C[C@@H]1F [WA2 1, 1-(2,3-dideoxy-3-fluoro-5-O-(12-methoxydodecanoyl)-b-D-ribofuranosyl)-4-thiothymine] | – | – | – | 269 | 9260 | 3150 | 330 | 550 | 180 | not toxic | > 200000
CCSCCCCCCCCCCCC(=O)OC[C@H]1O[C@@H](n2cc(C)c(=S)[nH]c2=O)C[C@@H]1F [WA-2 2, 1-(2,3-dideoxy-5-O-(12-thioethyldodecanoyl)-3-fluoro-b-D-ribofuranosyl)-4-thiothymine] | – | – | – | 998 | 10000 | 5920 | 120 | – | 75 | not toxic | > 200000
CCSCCCCCCCCCCC(=O)OC[C@H]1O[C@@H](n2cc(C)c(=S)[nH]c2=O)C[C@@H]1F [WA-2 3, 1-(5-O-(2,3-dideoxy-11-thioethylundecanoyl)-3-fluoro-b-D-ribofuranosyl)-4-thiothymine] | – | – | – | 965 | 5520 | – | 450 | 480 | 450 | not toxic | > 200000
Cc1cn([C@H]2C[C@H](F)[C@@H](COC(=O)CCCCCCCCCCCN=[N+]=[N-])O2)c(=O)[nH]c1=S [WA- 2 0, 1-(5-O-(12-azidododecanoyl)-2,3-dideoxy-3-fluoro-b-D-ribofuranosyl)-4-thi othymine] | – | – | – | 822 | 4640 | 2880 | 450 | 100 | ≤ 100000 | not toxic | > 200000
CCCCCCCCCCCCCC(=O)OC[C@H]1O[C@@H](n2cc(C)c(=S)[nH]c2=O)C[C@@H]1F [WA- 18, 1-(2,3-dideoxy-3-fluoro-5-O-(12-tetradodecanoyl)-b-D-ribofuranosyl)-4-thio thymine] | – | – | – | 421 | 8340 | 2400 | 130 | 45 | 150 | not toxic | > 200000
Cc1cn([C@H]2C[C@H](F)[C@@H](COC(=O)CCCCCCCCCCCBr)O2)c(=O)[nH]c1=S [WA- 19, 1-(5-O-(12-bromododecanoyl)-2.3-dideoxy-3-fluoro-b-D-ribofuranosyl)-4-th iothymine] | – | – | – | 710 | 10000 | – | – | – | – | not toxic | > 200000
